Data as given in US6355615B1, “Desoxycyclodepsipeptides and their use for combatting endoparasites” (Bayer Aktiengesellschaft, priority 1997, dated 2002).

System: Haemonchus contortus
Experiment: Haemonchus contortus/sheep: nematode egg count in feces before and after oral treatment
Type: in vivo
Conditions: Haemonchus contortus, po, read-out: effective dose (Dosis effectiva)
Procedure: Haemonchus contortus/sheep
Sheep experimentally infected with Haemonchus contortus were treated after expiry of the prepatency time of the parasite.
The active compounds were administered orally in gelatin capsules as pure active ingredient.
The efficacy is determined by quantitatively counting the nematode eggs excreted with the feces before and after treatment.
Complete cessation of oviposition after treatment means that the nematodes have been expelled or are so damaged that they no longer produce eggs (Dosis effectiva).

| SMILES | minimal effective dose |
| --- | --- |
| CC(C)C[C@H]1C(=O)O[C@H](Cc2ccc(N3CCOCC3)cc2)C(=O)N(C)[C@@H](CC(C)C)C(=O)O[C@H](C)CN(C)[C@@H](CC(C)C)C(=O)O[C@H](Cc2ccccc2N2CCOCC2)C(=O)N(C)[C@@H](CC(C)C)C(=O)O[C@H](C)CN1C [Example 6, 5,11,17,23-tetraisobutyl-2,4,10,14,16,22-hexamethyl-8-[-4-(N-morpholinyl)benzyl]-20-[2-(N-morpholinyl)benzyl]-1,7,13,19-tetraoxa-4,10,16,22-tetraaza-cyclotetracosan-6,9,12,18,21,24-hexaone] | < 1 mg/kg |
| COCCN(CCOC)c1ccc(CC2OC(=O)C(CC(C)C)N(C)CC(C)OC(=O)C(CC(C)C)N(C)C(=O)C(Cc3ccc(N(CCOC)CCOC)cc3)OC(=O)C(CC(C)C)N(C)CC(C)OC(=O)C(CC(C)C)N(C)C2=O)cc1 (stereo not drawn) [Example 16-c, 8,20-bis-[4-bis-(β-methoxyethyl)aminobenzyl)-5,11,17,23-tetraisobutyl-2,4,10,14,16,22-hexamethyl-1,7,13,19-tetraoxa-4,10,16,22-tetraazacyclotetracosan-6,9,12,18,21,24-hexaone] | < 1 mg/kg |
| CC(C)C[C@H]1C(=O)O[C@H](Cc2ccccc2)CN(C)[C@@H](CC(C)C)C(=O)O[C@H](C)CN(C)[C@@H](CC(C)C)C(=O)O[C@H](Cc2ccccc2)CN(C)[C@@H](CC(C)C)C(=O)O[C@H](C)CN1C [Example 2, 8,20-dibenzyl-5,11,17,23-tetraisobutyl-2,4,10,14,16,22-hexamethyl-1,7,13,19-tetraoxa-4,10,16,22-tetraazacyclotetracosan-6,12,18,24-tetraone] | < 1 mg/kg |
| CC(=O)N1CCN(S(=O)(=O)c2ccc(CC3OC(=O)C(CC(C)C)N(C)CC(C)OC(=O)C(CC(C)C)N(C)C(=O)C(Cc4ccc(S(=O)(=O)O)cc4)OC(=O)C(CC(C)C)N(C)CC(C)OC(=O)C(CC(C)C)N(C)C3=O)cc2)CC1 (centres unmarked) [Example 21-b, 8-[4-(4-acetylpiperazin-1-yl)-sulfonyl-benzyl]-20-(4-sulfobenzyl)-5,11,17,23-tetraisobutyl-2,4,10,14,16,22-hexamethyl-1,7,13,19-tetraoxa-4,10,16,22-tetraaza-cyclotetracosan-6,9,12,18,21,24-hexaone] | 1 mg/kg |
| CC(C)C[C@H]1C(=O)O[C@H](Cc2ccc(NCc3ccco3)cc2)C(=O)N(C)[C@@H](CC(C)C)C(=O)O[C@H](C)CN(C)[C@@H](CC(C)C)C(=O)O[C@H](Cc2ccc(NCc3ccco3)cc2)C(=O)N(C)[C@@H](CC(C)C)C(=O)O[C@H](C)CN1C [Example 19, 8,20-bis-N-[4-(2-furylmethylanino)benzyl]-5,11,17,23-tetraisobutyl-2,4,10,14,16,22-hexamethyl-1,7,13,19-tetraoxa-4,10,16,22-tetraaza-cyclotetracosan-6,9,12,18,21,24-hexaone] | < 1 mg/kg |
| CC(C)C[C@H]1C(=O)O[C@H](Cc2ccccc2)C(=O)N(C)[C@@H](CC(C)C)C(=O)O[C@H](C)CN(C)[C@@H](CC(C)C)C(=O)O[C@H](Cc2ccccc2)C(=O)N(C)[C@@H](CC(C)C)C(=O)O[C@H](C)CN1C [Example 1-b, 8,20-dibenzyl-5,11,17,23-tetraisobutyl-2,4,10,14,16,22-hexamethyl-1,7,13,19-tetraoxa-4,10,16,22-tetraaza-cyclotetracosan-6,9,12,18,21,24-hexaone] | < 1 mg/kg |
| CC(C)C[C@H]1C(=O)O[C@H](Cc2ccc(-n3cccc3)cc2)C(=O)N(C)[C@@H](CC(C)C)C(=O)O[C@H](C)CN(C)[C@@H](CC(C)C)C(=O)O[C@H](Cc2ccc(-n3cccc3)cc2)C(=O)N(C)[C@@H](CC(C)C)C(=O)O[C@H](C)CN1C [Example 14, 8,20-bis-[4-(1-pyrrolyl)-benzyl]-5,11,17,23-tetraisobutyl-2,4,10,14,16,22-hexamethyl-1,7,13,19-tetraoxa-4,10,16,22-tetraaza-cyclotetracosan-6,9,12,18,21,24-hexaone] | < 1 mg/kg |

Same assay, conditions: sheep experimentally infected with Haemonchus contortus; oral, gelatin capsules, pure active ingredient; complete cessation of oviposition after treatment

| SMILES | effective dose (Dosis effectiva) |
| --- | --- |
| COCCNc1ccc(CC2OC(=O)C(CC(C)C)N(C)C(=O)C(C)OC(=O)C(CC(C)C)N(C)C(=O)C(Cc3ccc(N(CCOC)CCOC)cc3)OC(=O)C(CC(C)C)N(C)CC(C)OC(=O)C(CC(C)C)N(C)C2=O)cc1 (stereo not drawn) [Example 17-a, 8(or 20)-[4-bis-(β-methoxyethyl)aminobenzyl]-20(or 8)-(4-β-methoxyethylaminobenzyl)-5,11,17,23-tetraisobutyl-2,4,10,14,16,22-hexamethyl-1,7,13,19-tetraoxa-4,10,16,22-tetraaza-cyclotetracosan-6,9,12,15,18,21,24-heptaone] | <1 mg/kg |

Same assay, conditions: sheep experimentally infected with Haemonchus contortus; oral, gelatin capsules, pure active ingredient; complete cessation of oviposition after treatment; read-out: effective dose (Dosis effectiva)

| SMILES | minimal effective dose |
| --- | --- |
| CC(C)C[C@H]1C(=O)O[C@H](Cc2ccc(N3CCOCC3)cc2)C(=O)N(C)[C@@H](CC(C)C)C(=O)O[C@H](C)CN(C)[C@@H](CC(C)C)C(=O)O[C@H](Cc2ccc(N3CCOCC3)cc2)C(=O)N(C)[C@@H](CC(C)C)C(=O)O[C@H](C)CN1C [Example 5, 5,11,17,23-tetraisobutyl-2,4,10,14,16,22-hexamethyl-8,20-bis-[4-(N-morpholinyl)benzyl]-1,7,13,19-tetraoxa-4,10,16,22-tetraaza-cyclotetracosan-6,9,12,18,21,24-hexaone] | < 1 mg/kg |
| CC(C)CC1C(=O)OC(C)CN(C)C(CC(C)C)C(=O)OC(Cc2ccc(N3CCOCC3)cc2)C(=O)N(C)C(CC(C)C)C(=O)OC(C)CN(C)C(CC(C)C)C(=O)OC(Cc2ccc(N3CCOCC3)cc2)CN1C (centres unmarked) [Example 7-c, 5,11,17,23-tetraisobutyl-2,4,10,14,16,22-hexamethyl-8,20-bis-[4-(N-morpholinyl)benzyl]-1,7,13,19-tetraoxa-4,10,16,22-tetraaza-cyclotetracosan-6,9,12,18,24-pentaone] | < 1 mg/kg |
| CC(C)CC1C(=O)OC(C)CN(C)C(CC(C)C)C(=O)OC(Cc2ccc(N3CCOCC3)cc2)CN(C)C(CC(C)C)C(=O)OC(C)CN(C)C(CC(C)C)C(=O)OC(Cc2ccc(N3CCOCC3)cc2)CN1C (centres unmarked) [Example 7-d, 5,11,17,23-tetraisobutyl-2,4,10,14,16,22-hexamethyl-8,20-bis-[4-(N-morpholinyl)benzyl]-1,7,13,19-tetraoxa-4,10,16,22-tetraaza-cyclotetracosan-6,12,18,24-tetraone] | < 1 mg/kg |
| COCCNc1ccc(CC2OC(=O)C(CC(C)C)N(C)CC(C)OC(=O)C(CC(C)C)N(C)C(=O)C(Cc3ccc(NCCOC)cc3)OC(=O)C(CC(C)C)N(C)CC(C)OC(=O)C(CC(C)C)N(C)C2=O)cc1 (stereo not drawn) [Example 16-a, 8,20-bis-(4-β-methoxyethylaminobenzyl)-5,11,17,23-tetraisobutyl-2,4,10,14,16,22-hexamethyl-1,7,13,19-tetraoxa-4,10,16,22-tetraaza-cyclotetracosan-6,9,12,18,21,24-hexaone] | < 1 mg/kg |

System: not given
Experiment: not given
Conditions: not given

| SMILES | melting point |
| --- | --- |
| CC(C)C[C@H]1C(=O)O[C@H](Cc2ccc(OCc3ccco3)cc2)C(=O)N(C)[C@@H](CC(C)C)C(=O)O[C@H](C)CN(C)[C@@H](CC(C)C)C(=O)O[C@H](Cc2ccc(OCc3ccco3)cc2)C(=O)N(C)[C@@H](CC(C)C)C(=O)O[C@H](C)CN1C (stereo in doubt) | 116 to 119 °C |
| CC(C)C[C@H]1C(=O)O[C@H](Cc2ccccc2)C(=O)N(C)[C@@H](CC(C)C)C(=O)O[C@H](C)CN(C)[C@@H](CC(C)C)C(=O)O[C@H](Cc2ccccc2)C(=O)N(C)[C@@H](CC(C)C)C(=O)O[C@H](C)CN1C [Example 1-b, 8,20-dibenzyl-5,11,17,23-tetraisobutyl-2,4,10,14,16,22-hexamethyl-1,7,13,19-tetraoxa-4,10,16,22-tetraaza-cyclotetracosan-6,9,12,18,21,24-hexaone] | 149 to 150 °C |
